Patent publication US4826814A, “Tripeptide derivatives” (Dainippon Pharmaceutical Co., Ltd., priority 1986, dated 1989)
Starred links: 1 amine or outer side, 2 acyl side, 3 side chain; linkers in the order of their positions; H or OH if unused. Non-standard residues stand in square brackets, D forms with d. Residues, ends and D or L forms follow the SMILES beside them. *: point of attachment. d(γGlu) = O=C(O)[C@@H](CCC(=O)[*:2])N[*:1]; Oic = O=C(O)[C@@H]1C[C@@H]2CCCC[C@@H]2N1; Nicotinoyl = O=C(c1cccnc1)*; Bz = O=C(c1ccccc1)*

Biological target: T1, ACE preparation (rabbit lung) (Oryctolagus cuniculus, UniProt P12822)
T1 construct: an ACE preparation (rabbit lung); from tissue; host or cells: rabbit lung
T1 sequence (P12822 34-1310): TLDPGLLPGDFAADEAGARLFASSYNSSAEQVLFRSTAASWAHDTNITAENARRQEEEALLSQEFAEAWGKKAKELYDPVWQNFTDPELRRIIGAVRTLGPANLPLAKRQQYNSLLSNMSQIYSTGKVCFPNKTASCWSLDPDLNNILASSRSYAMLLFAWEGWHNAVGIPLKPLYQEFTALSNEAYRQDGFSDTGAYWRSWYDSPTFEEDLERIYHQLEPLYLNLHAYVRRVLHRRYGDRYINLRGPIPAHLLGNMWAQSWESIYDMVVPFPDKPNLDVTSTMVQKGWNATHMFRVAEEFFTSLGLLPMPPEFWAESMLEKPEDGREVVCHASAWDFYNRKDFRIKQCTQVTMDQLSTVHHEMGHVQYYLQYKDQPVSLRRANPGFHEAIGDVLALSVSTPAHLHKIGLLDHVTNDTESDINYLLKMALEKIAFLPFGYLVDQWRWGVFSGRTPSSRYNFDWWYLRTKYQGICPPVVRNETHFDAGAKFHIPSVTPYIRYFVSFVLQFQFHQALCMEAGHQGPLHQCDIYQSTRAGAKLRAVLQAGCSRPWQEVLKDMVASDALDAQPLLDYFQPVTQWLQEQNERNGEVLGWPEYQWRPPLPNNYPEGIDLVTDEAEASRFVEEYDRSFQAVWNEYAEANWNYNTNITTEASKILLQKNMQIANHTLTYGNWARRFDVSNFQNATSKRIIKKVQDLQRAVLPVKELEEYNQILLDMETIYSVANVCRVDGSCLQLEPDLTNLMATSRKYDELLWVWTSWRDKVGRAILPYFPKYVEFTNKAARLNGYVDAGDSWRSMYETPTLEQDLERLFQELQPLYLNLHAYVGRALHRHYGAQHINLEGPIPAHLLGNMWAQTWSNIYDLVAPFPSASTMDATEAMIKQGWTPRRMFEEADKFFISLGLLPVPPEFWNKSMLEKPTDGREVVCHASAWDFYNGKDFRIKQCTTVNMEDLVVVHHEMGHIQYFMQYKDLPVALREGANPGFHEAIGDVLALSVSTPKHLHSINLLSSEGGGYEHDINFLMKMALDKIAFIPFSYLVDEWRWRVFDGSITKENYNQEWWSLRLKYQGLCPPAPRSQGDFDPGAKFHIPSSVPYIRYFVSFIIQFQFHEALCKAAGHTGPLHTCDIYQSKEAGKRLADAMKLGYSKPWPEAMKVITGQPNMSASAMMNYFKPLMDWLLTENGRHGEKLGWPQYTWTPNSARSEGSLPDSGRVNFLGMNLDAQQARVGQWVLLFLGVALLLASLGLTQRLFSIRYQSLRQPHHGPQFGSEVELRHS
Test: In vitro ACE inhibitory activity (hippuryl-L-histidyl-L-leucine substrate)
Type: biochemical
Settings: 37° C., 30 minutes, pH 8.3
Experimental: The assay medium contained an ACE preparation (rabbit lung), synthetic substrate (hippuryl-L-histidyl-L-leucine 5 mM), NaCl (300 mM) and phosphate buffer (100 mM, pH 8.3). It was mixed to a final volume of 0.300 ml and incubated at 37° C. for 30 minutes in the presence or absence of test compounds. After the reaction was terminated by adding 300 μl of 1N HCl, hippuric acid formed was extracted with 2 volume of ethyl acetate. After ethyl acetate was evaporated and distilled water was added, the hippuric acid was determined from its absorbance at 228 nm by spectrophotometer (Hitachi 100-41).
The degree of ACE inhibition was calculated from activities with and without test compounds. The IC50 value (molar concentration required for the 50% inhibition of ACE activity) was obtained from a dose-inhibition curve.

SMILES	IC50
NCCCC[C@H](NC(=O)c1ccccc1)C(=O)N[C@H](CCC(=O)N1[C@H](C(=O)O)C[C@@H]2CCCC[C@@H]21)C(=O)O [Example 27, (2S,3aS,7aS)-1-(N^2 -Benzoyl-L-lysyl-gamma-D-glutamyl)octahydro-1H-indole-2-carboxylic acid] (Bz-Lys-[d(γGlu)]-[Oic]-OH)	5.4 nM
NCCCC[C@H](NC(=O)OC1CCC1)C(=O)N[C@H](CCC(=O)N1[C@H](C(=O)O)C[C@@H]2CCCC[C@@H]21)C(=O)O [Example 32, (2S,3aS,7aS)-1-[N^2-(Cyclobutyloxycarbonyl)-L-lysyl-gamma-D-glutamyl]octahydro-1H-indole-2-carboxylic acid]	4.6 nM
NCCCC[C@H](NC(=O)c1cccnc1)C(=O)N[C@H](CCC(=O)N1c2ccccc2C[C@H]1C(=O)O)C(=O)O [Example 35, 1-(N^2 -Nicotinoyl-L-lysyl-gamma-D-glutamyl)indoline-2(S)-carboxylic acid]	11 nM
NCCCC[C@H](NC(=O)c1cccnc1)C(=O)N[C@H](CCC(=O)N1[C@H](C(=O)O)C[C@@H]2CCCC[C@@H]21)C(=O)O [Example 69, Monosodium (2S,3aS,7aS)-1-(N^2-nicotinoyl-L-lysyl-gamma-D-glutamyl)octahydro-1H-indole-2-carboxylate] (Nicotinoyl-Lys-[d(γGlu)]-[Oic]-OH)	7.8 nM
NCCCC[C@H](NC(=O)c1cccnc1Cl)C(=O)N[C@H](CCC(=O)N1[C@H](C(=O)O)C[C@@H]2CCCC[C@@H]21)C(=O)O [Example 54, (2S,3aS,7aS)-1-[N^2-(2-Chloronicotinoyl)-L-lysyl-gamma-D-glutamyl]octahydro-1H-indole-2-carboxylic acid]	5.9 nM
NCCCC[C@H](NC(=O)c1ccco1)C(=O)N[C@H](CCC(=O)N1c2ccccc2C[C@H]1C(=O)O)C(=O)O [Example 8, 1-[N^2-(2-Furoyl)-L-lysyl-gamma-D-glutamyl]indoline-2(S)-carboxylic acid]	23 nM
NCCCC[C@H](NC(=O)c1ccccc1)C(=O)N[C@H](CCC(=O)N1c2ccccc2C[C@H]1C(=O)O)C(=O)O [Example 39, 1-(N^2 -Benzoyl-L-lysyl-gamma-D-glutamyl)indoline-2(S)-carboxylic acid]	11 nM
NCCCC[C@H](NC(=O)c1ccccn1)C(=O)N[C@H](CCC(=O)N1[C@H](C(=O)O)C[C@@H]2CCCC[C@@H]21)C(=O)O [Example 20, (2S,3aS,7aS)-1-[N^2-(Pyridine-2-carbonyl)-L-lysyl-gamma-D-glutamyl]octahydro-1H-indole-2-carboxylic acid]	6.8 nM
NCCCC[C@H](NC(=O)c1ccc(Cl)cc1)C(=O)N[C@H](CCC(=O)N1[C@H](C(=O)O)C[C@@H]2CCCC[C@@H]21)C(=O)O [Example 55, (2S,3aS,7aS)-1-[N^2-(4-Chlorobenzoyl)-L-lysyl-gamma-D-glutamyl]octahydro-1H-indole-2-carboxylic acid]	6.2 nM
COc1ccccc1C(=O)N[C@@H](CCCCN)C(=O)N[C@H](CCC(=O)N1[C@H](C(=O)O)C[C@@H]2CCCC[C@@H]21)C(=O)O [Example 70, (2S,3aS,7aS)-1-[N^2-(2-Methoxybenzoyl)-L-lysyl-gamma-D-glutamyl]octahydro-1H-indole-2-carboxylic acid]	5.4 nM
NCCCC[C@H](NC(=O)c1cccs1)C(=O)N[C@H](CCC(=O)N1[C@H](C(=O)O)C[C@@H]2CCCC[C@@H]21)C(=O)O [Example 52, (2S,3aS,7aS)-1-[N^2-(2-Thiophenecarbonyl)-L-lysyl-gamma-D-glutamyl]octahydro-1H-indole-2-carboxylic acid]	4.5 nM
NCCCC[C@H](NC(=O)c1cnccn1)C(=O)N[C@H](CCC(=O)N1c2ccccc2C[C@H]1C(=O)O)C(=O)O [Example 68, 1-(N^2 -Pyrazinoyl-L-lysyl-gamma-D-glutamyl)indoline-2(S)-carboxylic acid]	16 nM
NCCCC[C@H](NC(=O)C=Cc1c[nH]cn1)C(=O)N[C@H](CCC(=O)N1c2ccccc2C[C@H]1C(=O)O)C(=O)O [Example 10, 1-{N^2-[3-(4-Imidazolyl)-propenoyl]-L-lysyl-gamma-D-glutamyl}indoline-2(S)-carboxylic acid]	95 nM
NCCCC[C@H](NC(=O)OC1CCCCC1)C(=O)N[C@H](CCC(=O)N1[C@H](C(=O)O)C[C@@H]2CCCC[C@@H]21)C(=O)O [Example 31, (2S,3aS,7aS)-1-(N^2 -Cyclohexyloxycarbonyl-L-lysyl-gamma-D-glutamyl)octahydro-1H-indole-2-carboxylic acid]	5 nM
NCCCC[C@H](NC(=O)c1cnc2ccccc2c1)C(=O)N[C@H](CCC(=O)N1[C@H](C(=O)O)C[C@@H]2CCCC[C@@H]21)C(=O)O [Example 53, (2S,3aS,7aS)-1-[N^2-(3-Quinolinecarbonyl)-L-lysyl-gamma-D-glutamyl]octahydro-1H-indole-2-carboxylic acid]	4.6 nM

More lines, now with the values ahead:

IC50	SMILES
4.6 nM	NCCCC[C@H](NC(=O)OCCc1ccccc1)C(=O)N[C@H](CCC(=O)N1[C@H](C(=O)O)C[C@@H]2CCCC[C@@H]21)C(=O)O [Example 26, (2S,3aS,7aS)-1-[N^2 -Phenethyloxycarbonyl-L-lysyl-gamma-D-glutamyl]octahydro-1H-indole-2-carboxylic acid]
6.6 nM	NCCCC[C@H](NC(=O)OCc1ccc2c(c1)OCO2)C(=O)N[C@H](CCC(=O)N1c2ccccc2C[C@H]1C(=O)O)C(=O)O [Example 74, 1-[N^2-(3,4-Methylenedioxybenzyloxycarbonyl)-L-lysyl-gamma-D-glutamyl]indoline-2(S)-carboxylic acid]
13 nM	NCCCC[C@H](NC(=O)OCC1CCCCC1)C(=O)N[C@H](CCC(=O)N1c2ccccc2C[C@H]1C(=O)O)C(=O)O [Example 16, 1-(N^2 -Cyclohexylmethoxycarbonyl-L-lysyl-gamma-D-glutamyl)indoline-2(S)-carboxylic acid]
5.6 nM	NCCCC[C@H](NC(=O)OCc1ccccc1)C(=O)N[C@H](CCC(=O)N1c2ccccc2C[C@H]1C(=O)O)C(=O)O [Example 1, 1-(N^2 -Benzyloxycarbonyl-L-lysyl-gamma-D-glutamyl)indoline-2(S)-carboxylic acid]
5.1 nM	NCCCC[C@H](NC(=O)OC1CCCC1)C(=O)N[C@H](CCC(=O)N1c2ccccc2C[C@H]1C(=O)O)C(=O)O [Example 37, 1-(N^2 -Cyclopentyloxycarbonyl-L-lysyl-gamma-D-glutamyl)indoline-2(S)-carboxylic acid]
8 nM	NCCCC[C@H](NC(=O)OCCC1CCCCC1)C(=O)N[C@H](CCC(=O)N1c2ccccc2C[C@H]1C(=O)O)C(=O)O [Example 34, 1-(N^2 -Cyclohexylethoxycarbonyl-L-lysyl-gamma-D-glutamyl)indoline-2(S)-carboxylic acid]
11 nM	COc1ccc(CCOC(=O)N[C@@H](CCCCN)C(=O)N[C@H](CCC(=O)N2c3ccccc3C[C@H]2C(=O)O)C(=O)O)cc1 [Example 28, 1-[N^2-(4-Methoxyphenylethoxycarbonyl)-L-lysyl-gamma-D-glutamyl]indoline-2(S)-carboxylic acid]
21 nM	NCCCC[C@H](NC(=O)[C@H]1CCCN1)C(=O)N[C@H](CCC(=O)N1c2ccccc2C[C@H]1C(=O)O)C(=O)O [Example 17, 1-(D-Prolyl-L-lysyl-gamma-D-glutamyl)indoline-2(S)-carboxylic acid]
13 nM	NCCCC[C@H](NC(=O)OCCc1ccccc1)C(=O)N[C@H](CCC(=O)N1c2ccccc2C[C@H]1C(=O)O)C(=O)O [Example 3, 1-(N^2 -Phenethyloxycarbonyl-L-lysyl-gamma-D-glutamyl)indoline-2(S)-carboxylic acid]
14 nM	NCCCC[C@H](NC(=O)OC1CCC1)C(=O)N[C@H](CCC(=O)N1c2ccccc2C[C@H]1C(=O)O)C(=O)O [Example 33, 1-(N^2 -Cyclobutyloxycarbonyl-L-lysyl-gamma-D-glutamyl)indoline-2(S)-carboxylic acid]
